This assay concerns Cell-based STAT3 reporter inhibition, counterscreen. Kind of assay: STAT3 inhibitors in reporter cells, dose response, counter-screen for STAT1 inhibitor project (AID 1409). (A counterscreen serves to expose hits that act by an unwanted route or on another target.)

For 53 molecules, IC50 results are on record in PubChem BioAssay AID1409 (The Scripps Research Institute Molecular Screening Center, 2008).

Active and inactive are the calls of the source. No rule for the calls is given here.

In the case of `O=C(c1ccco1)N1CCN(c2ncnc3c2[nH]c2ccc(Br)cc23)CC1`, the IC50 (commonly the concentration that inhibits the measured activity by half) was 25.6 µM (inactive).

As to `COc1ccc(CCNC(=O)Cn2c(=O)n(-c3ccc(F)cc3)c(=O)c3sccc32)cc1OC`, the IC50 is > 55.7 µM (inactive).

In the case of `CCOc1cc(-c2noc(N)c2C#N)cc(OCC)c1OCC`, the IC50 was > 55.7 µM (inactive). As for `COc1ccc(-c2cc(C(F)(F)F)nc(S(=O)(=O)CCCC(=O)Nc3cccc(O)c3)n2)cc1OC`, the figure is 31 µM (inactive). As for `COc1ccc(-c2cc(C(F)(F)F)nc(S(=O)(=O)CCCC(=O)Nc3cc(C)on3)n2)cc1OC`, the IC50 was 24.8 µM (inactive). Regarding `COc1ccccc1CNc1ncnc2cc(Cl)ccc12`, the IC50 was > 55.7 µM (inactive). Turning to `CN1CCN(Cc2nc3ccccc3c(=O)n2Cc2nc(-c3cccc([N+](=O)[O-])c3)cs2)CC1`, the IC50 is > 55.7 µM (inactive). In the case of `Cc1ccccc1-c1noc(N)c1C#N`, the IC50 was > 55.7 µM (inactive). In the case of `O=C(CSc1nc2ccccc2c(=O)[nH]1)c1ccc(O)cc1O`, the IC50 was > 55.7 µM (inactive). For `CCOC(=O)N1CCN(C(=O)c2ccc(-n3c(=S)[nH]c4ccccc4c3=O)cc2)CC1` the value was > 55.7 µM (inactive); for `CCOC(=O)CCS(=O)(=O)c1nc(-c2ccccc2)cc(C(F)(F)F)n1`, 24.2 µM (inactive); for `CCOC(=O)c1c(C)nc2sc3c(=O)n(-c4ccc(OC)cc4)nnc3c2c1-c1ccc(OC)cc1`, > 55.7 µM (inactive). `O=C(NNC(=O)c1cccc(S(=O)(=O)N2CCc3ccccc32)c1)c1ccccc1`: the IC50 is 15.9 µM (inactive).

Take `Cc1cc(=O)n(C(NC(=O)c2ccccc2)C(=O)c2ccccc2)cn1` (stereo not drawn): the IC50 was > 55.7 µM (inactive). For `CCn1c(O)c(/C=N/NC(=O)c2ccncc2)c(=O)n(CC)c1=S` the value was > 55.7 µM (inactive); for `COc1ccc(CNc2ncnc3cc(Cl)ccc23)cc1OC`, > 18.6 µM (inactive); for `CCOC(=O)N1CCN(C(=O)c2ccc(CSc3ccc(Cl)cc3)cc2)CC1`, 16.5 µM (inactive). For `Cn1c(C(=O)N2CCN(c3ccc([N+](=O)[O-])cc3)CC2)cc2c(=O)[nH]c3ccccc3c21` the value was 28.7 µM (inactive). Turning to `C#Cc1ccc([C@H]2C=C(C(=O)OCC=C)O[C@@H](OCC)[C@@H]2CCCO)cc1`, the IC50 was > 55.7 µM (inactive). As for `Cc1ccc(S(=O)(=O)N2CCN(C(C(=O)Nc3ccc(F)cc3)c3ccccc3)CC2)cc1` (stereo not drawn), the figure is > 55.7 µM (inactive); as for `COCC(C)NC(=O)CCS(=O)(=O)c1nc(-c2ccc(OC)cc2)cc(C(F)(F)F)n1` (stereo not drawn), > 55.7 µM (inactive). Regarding `Cc1ccc(C(=O)Nc2cccc(N(C)S(C)(=O)=O)c2)cc1S(=O)(=O)Nc1ccccc1`, the IC50 was > 55.7 µM (inactive). As for `COc1ccc(CCNc2ncnc3cc(OC)c(OC)cc23)cc1OC`, the figure is 14.6 µM (inactive); as for `COc1ccccc1-c1cc(C(F)(F)F)nc(S(=O)(=O)CCCC(=O)N2CCOCC2)n1`, 30.9 µM (inactive). As to `Cc1ccc(-c2csc3ncnc(Sc4nnc(CN5CCCCCC5=O)o4)c23)cc1`, the IC50 is 12.2 µM (inactive).

For the molecule `CN1CCN(Cc2nc3ccccc3c(=O)n2Cc2nc(-c3ccccc3F)cs2)CC1`, the IC50 is > 55.7 µM (inactive). For `COc1ccc(-n2c(SCc3cccnc3)nc3c(c2=O)SCC3)cc1OC` the value was > 55.7 µM (inactive); for `COc1ccccc1-c1cc(C(F)(F)F)nc(S(=O)(=O)CCCC(=O)Nc2cccnc2Cl)n1`, 34.6 µM (inactive).

As to `O=C(c1ccc(Cl)cc1)N1CCN(c2ccnc3cc(Cl)ccc23)CC1`, the IC50 is 22 µM (inactive). For `COc1ccccc1-c1cc(C(F)(F)F)nc(S(C)(=O)=O)n1` the value was 31.8 µM (inactive); for `Cc1ccc(-n2nc(C(=O)O)c3ccccc3c2=O)cc1C`, > 55.7 µM (inactive).

For the molecule `CCN(CC)S(=O)(=O)c1ccc(N2CCOCC2)c(NC(=O)c2cc(-c3ccccn3)nc3ccccc23)c1`, the half-maximal inhibitory concentration (IC50) is 9.73 µM.

In the case of `Cc1ccc2[nH]c3c(N4CCN(Cc5ccccc5)CC4)ncnc3c2c1`, the IC50 was 16.2 µM (inactive). For the molecule `CC1(C)Cc2c(ccc3ccccc23)C2=C(C(=O)N3CCCC3)C(=O)C(=O)N21`, the IC50 is > 55.7 µM (inactive). As for `O=C(c1ccco1)N1CCN(c2ncnc3c2[nH]c2ccccc23)CC1`, the figure is > 55.7 µM (inactive).

With `O=c1cc(CSc2nc3ccccc3c(=O)[nH]2)c2ccc(O)cc2o1`, the IC50 is > 55.7 µM (inactive). As for `CS(=O)(=O)c1nc(-c2ccco2)cc(C(F)(F)F)n1`, the figure is 38 µM (inactive); as for `CS(=O)(=O)c1nc(-c2ccccc2)cc(C(F)(F)F)n1`, 20.8 µM (inactive). As for `Cc1cc(NC(=O)CCCS(=O)(=O)c2nc(-c3cccs3)cc(C(F)(F)F)n2)no1`, the IC50 is > 55.7 µM (inactive). For `Cc1ccccc1NC(=O)C(=Cc1ccc(C(=O)O)cc1)C(=O)Nc1ccccc1C` the value was > 55.7 µM (inactive).

In the case of `CN1CCN(Cc2nc3ccccc3c(=O)n2Cc2nc(-c3ccc4ccccc4c3)cs2)CC1`, the IC50 was 49.2 µM (inactive).

Consider `CC1C(=O)NN=C1C(=O)N/N=C\C(Br)=C\c1ccccc1` (stereo not drawn), for which the IC50 is 23.8 µM (inactive). As to `CCOC(=O)C(=CNc1cc(C)nn1-c1ccccc1)C(=O)OCC`, the IC50 is > 55.7 µM (inactive). As for `Cn1nnnc1Sc1ncnc2scc(-c3ccc(F)cc3)c12`, the figure is 22.6 µM (inactive).

As for `COC(=O)C1=CN(Cc2ccc(OC)c(OC)c2)C=C(C(=O)OC)C1c1cccs1`, the IC50 was > 55.7 µM (inactive). Consider `O=C(c1ccc2c(c1)N(Cc1ccccc1)C(=O)c1ccccc1S2)N1CCCC1`, for which the IC50 is > 55.7 µM (inactive). As for `Cc1ccc(C2=Nc3c(ccc4ccccc34)C(c3ccncc3)=NN2)cc1`, the figure is > 55.7 µM (inactive); as for `CS(=O)(=O)c1nc(-c2ccc(F)cc2)cc(C(F)(F)F)n1`, 23.8 µM (inactive); as for `COC(=O)CCS(=O)(=O)c1nc(-c2ccccc2)cc(C(F)(F)F)n1`, 25.5 µM (inactive).

With `COc1ccc(-c2cc(C(F)(F)F)nc(S(=O)(=O)CCCC(=O)Nc3cccnc3Cl)n2)cc1OC`, the IC50 is 32.6 µM (inactive). For `Cc1cccc(/C=C(\c2nc3ccccc3[nH]2)S(=O)(=O)c2ccccc2)c1`, the IC50 was 20.3 µM (inactive). As for `CCOC(=O)N1CCN(C(=O)/C=C/c2c(C)nn(-c3ccc(F)cc3)c2Cl)CC1`, the figure is 37.1 µM (inactive); as for `CCn1c(=O)c2cc(C(=O)N3CCCC3)sc2c2ccccc21`, > 55.7 µM (inactive).
